Values of other authors as cited in patent US20210315194A1, “MOSQUITO ATTRACTANT FORMULATIONS AND USES THEREOF” (ACTIVE SCENT AB, priority 2018, published 2021).

Test system: wild egg-laying Culex mosquitoes
Conditions: traps baited with 1 mg of the compound

In the case of `CCCCCCCCC=O` [nonanal], the “attraction to baited traps” value is listed as “attract”.
